From patent publication US12331026B2 (NiKang Therapeutics, Inc., priority 2022, dated 2025)

Biological target: T1, CDK2 (Homo sapiens, UniProt P24941)
T1 construct: endogenous in cells; host or cells: OVCAR3 cells
Experiment: Phospho-RB measurement in OVCAR3 cells (HTRF phospho-RB S807/811)
Assay type: cell-based
Conditions: phosphorylation of RB protein at S807/811, HTRF, 24 h compound treatment, 0.3 to 10,000 nM, read-out: pRb (uM)
Outline: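 IC50 values come from four-parameter logistic fits of the DMSO-normalised 665/620 nm TR-FRET ratio for phospho-RB (S807/811). Antibody detection ran 4 h at room temperature.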

SMILES | IC50
CC1CCC(C)N1c1nc(-c2cccc(NS(=O)(=O)c3c(F)cccc3F)c2F)c(-c2ccnc(NC3CC4(C3)CS(=O)(=O)C4)n2)s1 (stereo not drawn) [Example 65, N-(3-(2-(2,5-dimethylpyrrolidin-1-yl)-5-(2-((2,2-dioxido-2-thiaspiro[3.3]heptan-6-yl)amino)pyrimidin-4-yl)thiazol-4-yl)-2-fluorophenyl)-2,6-difluorobenzenesulfonamide] | 0.39 µM
CN1CC2CCC(C1)N2c1nc(-c2cccc(NS(=O)(=O)c3c(F)cccc3OC(F)F)c2F)c(-c2ccnc(NC3CC4(C3)CS(=O)(=O)C4)n2)s1 [Example 66, 2-(difluoromethoxy)-N-(3-(5-(2-((2,2-dioxido-2-thiaspiro[3.3]-heptan-6-yl)amino)pyrimidin-4-yl)-2-(3-methyl-3,8-diazabicyclo[3.2.1]octan-8-yl)thiazol-4-yl)-2-fluorophenyl)-6-fluorobenzenesulfonamide] | 0.15 µM
C[C@H]1CN(C)C[C@H](C)N1c1nc(-c2cccc(NS(=O)(=O)c3c(F)cccc3C(F)(F)F)c2F)c(-c2ccnc(NC3CC4(C3)CS(=O)(=O)C4)n2)s1 [Example 70, N-(3-(5-(2-((2,2-dioxido-2-thiaspiro[3.3]heptan-6-yl)amino)-pyrimidin-4-yl)-2-((2S,6S)-2,4,6-trimethylpiperazin-1-yl)thiazol-4-yl)-2-fluorophenyl)-2-fluoro-6-(trifluoromethyl)benzenesulfonamide] | 0.03 µM
CC1CC(C)N1c1nc(-c2cccc(NS(=O)(=O)c3c(F)cccc3F)c2F)c(-c2ccnc(NC3CC4(C3)CS(=O)(=O)C4)n2)s1 (stereo not drawn) [Example 71, N-(3-(2-(2,4-dimethylazetidin-1-yl)-5-(2-((2,2-dioxido-2-thiaspiro[3.3]heptan-6-yl)amino)pyrimidin-4-yl)thiazol-4-yl)-2-fluorophenyl)-2,6-difluorobenzenesulfonamide] | 18.9 µM
O=S1(=O)C[C@@H]2[C@H](C1)[C@H]2Nc1nccc(-c2sc(C3(C(F)F)CC3)nc2-c2cccc(NS(=O)(=O)c3c(F)cccc3C(F)(F)F)c2F)n1 [Example 72, N-(3-(2-(1-(difluoromethyl)cyclopropyl)-5-(2-(((1R,5S,6r)-3,3-dioxido-3-thiabicyclo[3.1.0]hexan-6-yl)amino)pyrimidin-4-yl)thiazol-4-yl)-2-fluorophenyl)-2-fluoro-6-(trifluoromethyl)benzenesulfonamide] | 0.061 µM
O=S1(=O)C[C@@H]2[C@H](C1)[C@@H]2Nc1nccc(-c2sc(C34CCC(CC3)C4)nc2-c2cccc(NS(=O)(=O)c3c(F)cccc3F)c2F)n1 [Example 73, N-(3-(2-(bicyclo[2.2.1]heptan-1-yl)-5-(2-(((1R,5S,6s)-3,3-dioxido-3-thiabicyclo[3.1.0]hexan-6-yl)amino)pyrimidin-4-yl)thiazol-4-yl)-2-fluorophenyl)-2,6-difluorobenzenesulfonamide] | 0.6 µM
COc1cccc(C(F)(F)F)c1S(=O)(=O)Nc1cccc(-c2nc(N3C4CCC3CN(C)C4)sc2-c2ccnc(NC3CC4(C3)CS(=O)(=O)C4)n2)c1F [Example 74, N-(3-(5-(2-((2,2-dioxido-2-thiaspiro[3.3]heptan-6-yl)amino)-pyrimidin-4-yl)-2-(3-methyl-3,8-diazabicyclo[3.2.1]octan-8-yl)thiazol-4-yl)-2-fluorophenyl)-2-methoxy-6-(trifluoromethyl)benzenesulfonamide] | 0.63 µM
CN1CC2CCC(C1)N2c1nc(-c2cccc(NS(=O)(=O)c3c(OC(F)F)cccc3C(F)(F)F)c2F)c(-c2ccnc(NC3CC4(C3)CS(=O)(=O)C4)n2)s1 [Example 75, 2-(difluoromethoxy)-N-(3-(5-(2-((2,2-dioxido-2-thiaspiro[3.3]heptan-6-yl)amino)pyrimidin-4-yl)-2-(3-methyl-3,8-diazabicyclo[3.2.1]octan-8-yl)thiazol-4-yl)-2-fluorophenyl)-6-(trifluoromethyl)benzenesulfonamide] | 0.85 µM
O=S1(=O)C[C@@H]2[C@H](C1)[C@@H]2Nc1nccc(-c2sc(C34CC5CC(CC(C5)C3)C4)nc2-c2cccc(NS(=O)(=O)c3c(F)cccc3F)c2F)n1 [Example 76, N-(3-(2-((3R,5R,7R)-adamantan-1-yl)-5-(2-(((1R,5S,6s)-3,3-dioxido-3-thiabicyclo[3.1.0]hexan-6-yl)amino)pyrimidin-4-yl)thiazol-4-yl)-2-fluorophenyl)-2,6-difluorobenzenesulfonamide] | 0.87 µM
O=S1(=O)C[C@@H]2[C@H](C1)[C@H]2Nc1nccc(-c2sc(C34CC5CC(CC(C5)C3)C4)nc2-c2cccc(NS(=O)(=O)c3c(F)cccc3F)c2F)n1 [Example 77, N-(3-(2-((3R,5R,7R)-adamantan-1-yl)-5-(2-(((1R,5S,6r)-3,3-dioxido-3-thiabicyclo[3.1.0]hexan-6-yl)amino)pyrimidin-4-yl)thiazol-4-yl)-2-fluorophenyl)-2,6-difluorobenzenesulfonamide] | 0.24 µM
C[C@H]1COC[C@H](C)N1c1nc(-c2cccc(NS(=O)(=O)c3c(F)cccc3C(F)(F)F)c2F)c(-c2ccnc(NC3CC4(C3)CS(=O)(=O)C4)n2)s1 [Example 79, N-(3-(2-((3S,5S)-3,5-dimethylmorpholino)-5-(2-((2,2-dioxido-2-thiaspiro[3.3]heptan-6-yl)amino)pyrimidin-4-yl)thiazol-4-yl)-2-fluorophenyl)-2-fluoro-6-(trifluoromethyl)benzenesulfonamide] | 0.06 µM
O=S1(=O)CC2(CC(Nc3nccc(-c4sc(C5(C(F)F)CC5)nc4-c4cccc(NS(=O)(=O)c5c(F)cccc5C(F)(F)F)c4F)n3)C2)C1 [Example 80, N-(3-(2-(1-(difluoromethyl)cyclopropyl)-5-(2-((2,2-dioxido-2-thiaspiro[3.3]heptan-6-yl)amino)pyrimidin-4-yl)thiazol-4-yl)-2-fluorophenyl)-2-fluoro-6-(trifluoromethyl)benzenesulfonamide] | 0.06 µM
O=S1(=O)CC2(CC(Nc3nccc(-c4sc(C5(C(F)F)CC5)nc4-c4cccc(NS(=O)(=O)c5c(F)cccc5OC(F)F)c4F)n3)C2)C1 [Example 81] | 0.14 µM
O=S1(=O)CC2(CC(Nc3nccc(-c4sc(N5C6CCC5CN(C5CC5)C6)nc4-c4cccc(NS(=O)(=O)c5c(F)cccc5C(F)(F)F)c4F)n3)C2)C1 [Example 82, N-(3-(2-(3-cyclopropyl-3,8-diazabicyclo[3.2.1]octan-8-yl)-5-(2-((2,2-dioxido-2-thiaspiro[3.3]heptan-6-yl)amino)pyrimidin-4-yl)thiazol-4-yl)-2-fluorophenyl)-2-fluoro-6-(trifluoromethyl)benzenesulfonamide] | 0.13 µM
O=S1(=O)CC2(CC(Nc3nccc(-c4sc(C5(C(F)F)CCC5)nc4-c4cccc(NS(=O)(=O)c5c(F)cccc5C(F)(F)F)c4F)n3)C2)C1 [Example 83, N-(3-(2-(1-(difluoromethyl)cyclobutyl)-5-(2-((2,2-dioxido-2-thiaspiro[3.3]heptan-6-yl)amino)pyrimidin-4-yl)thiazol-4-yl)-2-fluorophenyl)-2-fluoro-6-(trifluoromethyl)benzenesulfonamide] | 0.04 µM
O=S1(=O)CC2(CC(Nc3nccc(-c4sc(C5(C(F)(F)F)CCC5)nc4-c4cccc(NS(=O)(=O)c5c(F)cccc5C(F)(F)F)c4F)n3)C2)C1 [Example 84, N-(3-(5-(2-((2,2-dioxido-2-thiaspiro[3.3]heptan-6-yl)amino)-pyrimidin-4-yl)-2-(1-(trifluoromethyl)cyclobutyl)thiazol-4-yl)-2-fluorophenyl)-2-fluoro-6-(trifluoromethyl)benzenesulfonamide] | 0.03 µM
O=S1(=O)CC2(CC(Nc3nccc(-c4sc(C5(C(F)(F)F)CC5)nc4-c4cccc(NS(=O)(=O)c5c(F)cccc5C(F)(F)F)c4F)n3)C2)C1 [Example 85, N-(3-(5-(2-((2,2-dioxido-2-thiaspiro[3.3]heptan-6-yl)amino)-pyrimidin-4-yl)-2-(1-(trifluoromethyl)cyclopropyl)thiazol-4-yl)-2-fluorophenyl)-2-fluoro-6-(trifluoromethyl)benzenesulfonamide] | 0.03 µM
O=S1(=O)CC2(CC(Nc3nccc(-c4sc(C56CC(F)(C5)C6)nc4-c4cccc(NS(=O)(=O)c5c(F)cccc5C(F)(F)F)c4F)n3)C2)C1 [Example 86, N-(3-(5-(2-((2,2-dioxido-2-thiaspiro[3.3]heptan-6-yl)amino)-pyrimidin-4-yl)-2-(3-fluorobicyclo[1.1.1]pentan-1-yl)thiazol-4-yl)-2-fluorophenyl)-2-fluoro-6-(trifluoromethyl)benzenesulfonamide] | 0.04 µM
CS(=O)(=O)[C@H]1CC[C@@H](Nc2nccc(-c3sc(C45CC(F)(C4)C5)nc3-c3cccc(NS(=O)(=O)c4c(F)cccc4C(F)(F)F)c3F)n2)CC1 [Example 87, 2-fluoro-N-(2-fluoro-3-(2-(3-fluorobicyclo[1.1.1]pentan-1-yl)-5-(2-(((1s,4s)-4-(methylsulfonyl)cyclohexyl)-amino)pyrimidin-4-yl)thiazol-4-yl)phenyl)-6-(trifluoromethyl)benzenesulfonamide] | 0.077 µM
O=S1(=O)CC2(CC(Nc3nccc(-c4sc(C56CC(C(F)(F)F)(C5)C6)nc4-c4cccc(NS(=O)(=O)c5c(F)cccc5C(F)(F)F)c4F)n3)C2)C1 [Example 88, N-(3-(5-(2-((2,2-dioxido-2-thiaspiro[3.3]heptan-6-yl)amino)-pyrimidin-4-yl)-2-(3-(trifluoromethyl)bicyclo[1.1.1]pentan-1-yl)thiazol-4-yl)-2-fluorophenyl)-2-fluoro-6-(trifluoromethyl)-benzenesulfonamide] | 0.09 µM
O=S1(=O)CC2(CC(Nc3nccc(-c4sc(C5(C(F)(F)F)CC5)nc4-c4cccc(NS(=O)(=O)c5c(F)cccc5F)c4F)n3)C2)C1 [Example 89, N-(3-(5-(2-((2,2-dioxido-2-thiaspiro[3.3]heptan-6-yl)amino)-pyrimidin-4-yl)-2-(1-(trifluoromethyl)cyclopropyl)thiazol-4-yl)-2-fluorophenyl)-2,6-difluorobenzenesulfonamide] | 0.12 µM
